{"source": "patent US20180368393A1", "about": "“PRE- AND POST-STORAGE STRESS RESPONSE CONDITIONING” (CPSI HOLDINGS LLC, priority 2017, published 2018)", "key": {"hamster beta islet cells": {"test_system": "hamster beta islet cells", "test": "Hamster beta islet cell survival following cryopreservation (AlamarBlue assay)", "format": "cell-based", "conditions": "PW conditioning 24 hours vs non-modulated samples; 10 mM NAC recovery media", "protocol": "The studies described in example 8 focus on the collection of cell survival data and the impact of post-thaw conditioning on hamster beta islet cells. Specific activities included standard cryopreservation protocol and collection of data (survival and cell death) from samples frozen using 3 unique cryopreservation solutions (media with 0, 5% DMSO and 5% DMSO+NAC) and oxidative stress PW modulation (NAC). Survival was determined at 24 hours post-thaw to allow for the manifestation of any delayed onset cell death pathways to be executed. Further, cell recovery was included to evaluate the long term potency and repopulation potential of the various samples.\nCell samples were processed according to standard controlled rate suspension freeze protocols and analyzed following 24 hours to 3 days post thaw for survival and recovery. […] To this end, samples were probed with AlamarBlue, incubated for 60 mins in the dark and then assessed using a Tecan micro plate reader. […]\nFIG. 33 illustrates the results of an assessment of beta islet cell survival following cryopreservation in media based solutions with various CPA concentrations. […] Following thawing, samples were placed into culture and assessed for viability at 1 day (24 hours) post-thaw using the AlamarBlue assay. […]"}, "[1]": {"test_system": "endothelial and smooth muscle cells", "test": "Summary of Examples 2-3: post-thaw survival of endothelial and smooth muscle cells (Calcein-AM assay)", "format": "cell-based, human", "protocol": "For pre-freeze (PF), post-warming (PW) and pre/post (P/P) conditioning studies, molecular modulation agents targeting inhibition of apoptosis (Caspase inhibitor IV, 8, 9 and a combination of Caspases 8 and 9), reduction of free-radical damage (resveratrol and NAC), and activation of the unfolded protein response (salubrinal) were employed as supplements in the media 1 hour prior to freezing (pre-freeze condition) or for 1 day following thawing and CPA removal from frozen samples (post-warming condition).\nThe device was used to thaw the samples, which were frozen in situ in monolayers in standard 96-well tissue culture plates. Samples were thawed from less than −170° C. to about 4° C. in the 96-well plate format in about 5 mins in a dry clean (“sterile”) environment.\nThe P/P regime was followed by PW using Caspase 8 inhibition or NAC inhibition."}}, "data": [{"smiles": "CC(=O)N[C@@H](CS)C(=O)O", "note": "[NAC, n-acetyl cysteine]", "values": [{"measurement": "post-thaw survival", "setting": "hamster beta islet cells", "value": "improvement in post-thaw survival"}, {"measurement": "day 1 post-thaw cell survival and cell recovery", "setting": "[1]; PF, PW and P/P conditioning, Unisol based solutions", "value": "Improvements in survival"}, {"measurement": "increase in cell survival over non-treated samples", "setting": "[1]; PW conditioning", "value": "~50", "unit": "%"}]}]}
